From patent US20250276996A1, “CATIONICALLY-ENFRAMED HIGH DENSITY AROMATIC PEPTIDES” (Research Foundation of the City University of New York, priority 2022, published 2025)
“Also recorded” adds a separate entry of the source. Non-standard residues stand in square brackets, D forms with d. Residues, ends and D or L forms follow the SMILES beside them. *: point of attachment. Biotin = O=C1N[C@H]2[C@H](CS[C@H]2CCCCC(=O)*)N1

Key:
[1] = Displacement of nonyl acridine orange (NAO) from POPC-CL liposomes; format: binding, bovine
Experimental: The resulting multilamellar vesicles were vortexed lightly and sized into small unilamellar vesicles by heated bath sonication for 25 min. All liposomes were cooled to ambient temperature before use.
Interaction of biotin-HDAP2 Peptide with Phospholipids: The ability of biotin-HDAP2 to displace nonyl acridine orange (NAO), a fluoroprobe known to selectively bind CL was determined. Interaction of biotin-HDAP2 with phospholipids was examined by measuring changes in the fluorescence spectra of 3 μM NAO (Molecular Devices, Sunnyvale, CA)) with excitation at 480 nm. CL and POPC in liposomes were use at 30 μM. Dose response curves were done with 30 μM CL, biotin-HDAP2 (0, 2.5, 5, 10, 20, and 30 μM), and 3 μM of NAO (ex/em at 480 nm/520 nm). All experiments were done in 10 mM Hepes (pH 7.4) to optimize electrostatic interactions of peptides with phospholipids.

[2] = tested on: MDBK cells; assay: Serum starvation cell death, methylene blue staining; format: cell-based, bovine; conditions: serum-free media 5-7 days, read-out: EC50, prevention of cell death
Experimental: MDBK cells were incubated in serum-free media for 5-7 days in the presence or absence of different concentrations of biotin-HDAP2. At the end of the incubation period, media was removed, the cells were fixed in 4% PFA and then stained with Methylene Blue Loeffler for 30 minutes. Images were obtained using a Tiffen Zoom Camera, interfaced with PC Image, and analyzed using ImageJ NIH software. Experiments were conducted 5 times in triplicates for each experimental condition. Biotin-HDAP2 prevented cell death in a dose-dependent manner with EC50 of about 300 nM (FIG. 4).

[3] = tested on: ARPE-19 cells; assay: Mitochondrial potential in the presence of CCCP (TMRM); format: cell-based; conditions: 10 μM CCCP, TMRM
Experimental: Effects of peptides on mitochondrial potential in the presence of Carbonyl cyanide m-chlorophenylhydrazone (CCCP): ARPE-19 cells (ATTC-CRL-2302) (5×10^4 cells) were seeded in 35 mm glass dishes in DMEM/F12 medium with 10% FBS for 24 hr. On the day of the experiment, cells were cultured in DMEM/F12 in the presence of different concentrations of biotin-HDAP2 for 60 min (FIG. 17B). Then, cells were incubated with 10 μM CCCP in the presence of 5 nM TMRM, 100 nM Mito View Green, and 10 μg/ml Hoechst 33342 for 15 min at 37° C. Fluorescent images were immediately obtained with a Nikon Eclipse 50i fluorescence microscope (60× objective) using FITC (Mito View Green), Texas Red (TMRM), and DAPI (Hoechst) filters. Images were collected from three independent experiments, using 4-6 random fields for each treatment group, and imaged and analyzed as described for NR.

[4] = tested on: retinal ganglion cells and optic nerve; assay: Optic nerve protection with elevated intraocular pressure; format: in vivo, DBA/2J mice
Experimental: A series of experiments were conducted to determine if biotin-HDAP2 preserves mitochondrial ultrastructure in retinal ganglion cells (RGC) axons, whether biotin-HDAP2 preserves the integrity of axons in the optic nerve and/or whether biotin-HDAP2 treatment improves RGC survival. To these ends, 100 DBA/2J mice (8 and 12 weeks old) were obtained with the goal of studying them at 6 and 12 months of age. A small number of animals were examined at 6 months, but they had not yet developed elevated intraocular pressure (IOP), and no differences were observed between treatment conditions in optic nerve appearance or retinal ganglion cell distribution. Therefore, further analysis was delayed until animals reached 10 months, when elevated IOP was reliably present.
Optic nerves from all three experimental conditions (control, untreated and biotin-HDAP2-treated) have been embedded for ultrastructural analysis.
Nerves were obtained from 10-month-old animals who had high IOP for at least 3 consecutive months. Differences between control, untreated and biotin-HDAP2-treated groups were striking and correlated closely with cumulative intraocular pressure (cIOP) exposure.
All retinas in this study were stained with RBPMS, imaged using confocal microscopy, and RGCs were automatically counted using ImageJ. To assess the overall effect of biotin-HDAP2 treatment on RGC survival, RGC counts between biotin-HDAP2-treated and Untreated animals were compared across all available time points.

[5] = tested on: MDBK cells; conditions: dilutions up 100 μM

## N=C(N)NCCC[C@@H](NC(=O)[C@H](Cc1ccccc1)NC(=O)[C@H](Cc1ccccc1)NC(=O)[C@@H](CCCNC(=N)N)NC(=O)CCCC[C@@H]1SC[C@@H]2NC(=O)N[C@@H]21)C(N)=O [biotin-HDAP2, Biotin-dArg-Phe-Phe-dArg-NH2] (Biotin-[dR]FF[dR]-NH2)
[1]
  effect on intensity of NAO fluorescence: decreased the intensity of NAO fluorescence to background levels; also recorded: decreases the intensity of NAO fluorescence with POPC-CL liposomes in a dose-dependent manner
[2]
  EC50: ~300 nM
[3]
  effect on CCCP-mediated mitochondrial depolarization: prevented CCCP-mediated decreases in the mitochondrial membrane potential in a dose-dependent manner
[3]; listed as Biotin-HDAP2
  effect on CCCP-mediated mitochondrial depolarization: prevented mitochondrial depolarization in a dose-dependent manner
[4]; 10-month-old animals, high IOP at least 3 months
  optic nerve axon morphology: morphologically comparable to those of young controls
[4]; all available time points, n=23
  RGC counts (mean): 26,267±14,440
[4]; elevated cIOP
  RGC counts compared with other groups: significantly higher RGC counts overall; also recorded: RGC counts similar to controls
[4]; nerves exposed to high IOP
  mitochondrial ultrastructure in RGC axons (TEM): more numerous and exhibit preserved cristae and greater structural integrity
[5]
  cellular toxicity: No toxicity in MDBK cell growth was observed
